For two molecules, melting point results are on record in patent US10472420B2, “Immune response modifier conjugates” (3M INNOVATIVE PROPERTIES COMPANY, priority 2006, dated 2019).

The melting point is the temperature of the solid-liquid transition.

As to `CCOCc1nc2c(N)nc3ccccc3c2n1CC(C)(C)NC(=O)CCC(=O)NN` [IRM5, N-{2-[4-Amino-2-(ethoxymethyl)-1H-imidazo[4,5-c]quinolin-1-yl]-1,1-dimethylethyl}-4-hydrazino-4-oxobutanamide], the melting point was 203 to 204.6 °C.
`CCOCc1nc2c(N)nc3cc(OCCCCCCNC(=O)CCS)ccc3c2n1CC(C)(C)NS(C)(=O)=O` [IRM10, N-{6-[(4-Amino-2-(ethoxymethyl)-1-{2-methyl-2-[(methylsulfonyl)amino]propyl}-1H-imidazo[4,5-c]quinolin-7-yl)oxy]hexyl}-3-mercaptopropanamide] gave a melting point of 152 to 157 °C.
